For orientation: melting point means the temperature of the solid-liquid transition.

This note sets out measurements from a melting point compilation (Tetko et al.; mined from patent text by program, amines drawn as free bases though some values may be those of a salt).

Some results are limits rather than exact numbers.

Turning to `CC(=O)NC(=O)N1CCSC1c1ccccc1OCCN1CCN(c2cccc(F)c2)CC1` (centres undefined), the melting point was in the range of 142 to 143 °C.

Take `CS(=O)(=O)Nc1ccc(CCc2n[nH]c3c2c(=O)n(-c2ccccc2)c2ncccc32)cc1`: the melting point fell in the range of 284 to 285 °C.

`COc1cc(-n2cccn2)ncn1` yielded a melting point of 108 to 109 °C.

`O=C(NCCc1cccc2ccccc12)C(F)(F)F`: the melting point lay within 79 to 80 °C.

In the case of `CCOCC(=O)C(=CN(CC)CC)c1cccc(C(F)(F)F)c1`, the melting point is 131 to 133 °C.

For the compound `CCOC(=O)C(C(=O)OCC)=C1CN(C)C(=O)c2ccccc2N1`, the melting point turned out to be 139 °C.

Regarding `CCOC(=O)c1cnc2sc3c(n12)CCC3`, the melting point was 101 to 102 °C.

Take `CCCCc1cc2ccccc2c(Oc2ccc(/C=C/C(=O)O)cc2)c1-c1ccc(F)cc1`: the melting point was 169 to 170 °C.

Compound `COc1ccc(C(=O)OC2CC3C(=O)NC4(C(=O)NS(=O)(=O)C5CC5)CC4C=CCOCCCC(NC(=O)OC(C)(C)C)C(=O)N3C2)cc1` (centres undefined) yielded a melting point of 145 to 147 °C.

As for `COC(=O)[C@H]1[C@@H]2CC[C@@](NC(=O)OC(C)(C)C)(C(=O)OC)[C@@H]21`, the melting point was 193 to 194 °C.

For the compound `CCOC(=O)C1=C(N)NC(C)=CC1c1ccc(OC)cc1` (centres undefined), the melting point lay within 160 to 161 °C.

In turn, `O=C(O)COc1cccc2c1CCC(Cc1nc(C(c3ccccc3)c3ccccc3)co1)C2` (centres undefined) yielded a melting point of 130 to 132 °C.

On to `Cc1c[nH]c(Nc2ccc(C3=NNC(=O)CC3C)cc2)nc1=O` (centres undefined), for which the melting point lay in the range of 260 to 270 °C.

On to `O=C1c2cc(Br)sc2SCCN1CCCCCl`, for which the melting point fell in the range of 81 to 89 °C.

As for `COc1ccc2c(c1)c1c3c(c(-c4ccccc4Cl)cc1n2CCC(=O)O)C(=O)NC3=O`, the melting point turned out to be 277 °C.

`O=C(NCCN1CCNCC1)c1cccc(C=CC(=O)N2CCc3c([nH]c4ccccc34)C2c2ccc3c(c2)OCO3)c1` (centres undefined) gave a melting point of 138 to 140 °C.

Take `COC(=O)C(=O)c1ccc(OCCOc2ccc3ccccc3c2)cc1F`: the melting point fell in the range of 135 to 136 °C.

Turning to `COc1cc2ncc(C#N)c(Nc3ccc(C)c(Cl)c3)c2cc1OC`, the melting point was greater than 250 °C.

Turning to `CC(=O)c1nc(C)n2c1CN=C(c1ccccc1Cl)c1cc(Cl)ccc1-2`, the melting point lay within 234 to 236 °C.

The compound `CCOC(=O)CNC(=O)c1oc2cc(-c3ccc(Cn4c(C)nc5ccccc54)cc3)ccc2c1C` registered a melting point of 184 to 186 °C.

`CCC1SC=C(C)NC1=O` (centres undefined) had a melting point of 69 to 71 °C.

On to `CCC(=O)NCCC1=CCc2cnc3c(c21)CCO3`, for which the melting point lay within 111 to 112 °C.

In the case of `COc1ccc(N(CCCC(=O)O)C(=O)C(C)N(C(C)=O)c2ccc(OC)cc2)cc1` (centres undefined), the melting point is 155 to 157 °C.

`CN(C)C1(c2ccccc2)CCC(C#N)(N2CCCC2)CC1` (centres undefined) displayed a melting point of 136 to 142 °C.

For `O=C(c1cccc(Cl)c1)N1CCc2cc(S(=O)(=O)N3CCN(c4cccc(Cl)c4)CC3)ccc21`, the melting point was 221 to 222 °C.

`CCCCCN1C(=O)C2(COc3cc4c(cc32)OCO4)c2c(C#N)cccc21` (centres undefined): the melting point fell in the range of 128 to 129 °C.

As for `CC(=Cc1ccc(N(C)C)cc1)C(=O)O`, the melting point is 190 to 194 °C.

`Cc1c(-c2ccc(N(C)C)nn2)ssc1=S` had a melting point of 216 °C.

`CN1C(=O)C(F)N=C(c2ccccc2Cl)c2cc(Cl)ccc21` (centres undefined) yielded a melting point of 204 to 205 °C.

As to `N=C(N)N(CCCC(C=O)NC(=O)C1CCCN1C(=O)c1cc2ccccc2[nH]1)C(=O)OCc1ccccc1` (centres undefined), the melting point lay in the range of 111 to 133 °C.

`O=[N+]([O-])C=C1SCCN1Cc1ccccc1` had a melting point of 136 to 138 °C.

With `Nc1ccc(C#Cc2ccccc2)c(-c2cc(N)ccc2C#Cc2ccccc2)c1`, the melting point fell in the range of 159 to 161 °C.

As for `C[Si](C)(C)OC(Cn1cncn1)(Cn1cncn1)c1ccc(F)cc1F`, the melting point is 69 to 71 °C.

As to `CC(=O)Nc1ccc(-c2cc(-c3c(-c4ccccn4)nc4ccccn34)ccn2)cc1`, the melting point came to 133 °C.

Compound `NS(=O)(=O)c1ccc(N2CN(c3ccccc3)CC2=O)cc1Cl` gave a melting point of 257 to 259 °C.

In turn, `CN1CCN(c2ccc(S(=O)(=O)c3ccccc3)c3ccccc23)CC1` yielded a melting point of 71 to 72 °C.

`CC(=O)NC(CF)COC1CCN(c2nc3ccc(OCC4CC4)cc3o2)CC1` (centres undefined): the melting point fell in the range of 120 to 121 °C.

In the case of `COC(=O)C(=O)c1ccc(OCCCNC(=O)c2ccc3ccccc3c2)cc1`, the melting point was in the range of 143 to 144 °C.

`ClCCCCCCOc1ccc(C2=C(c3ccccc3)CCCc3cc(OC4CCCCO4)ccc32)cc1` (centres undefined) returned a melting point of 84 to 86 °C.

Compound `CCOC(=O)c1ccc(-c2ncc(-c3ccc(Cl)cc3)o2)cc1` showed a melting point of 195 to 197 °C.

Regarding `Cc1ccccc1-c1c(C(=O)O)c(=O)oc2cc3c(cc12)CCCC3`, the melting point lay in the range of 216 to 217 °C.

`Oc1cc(C(F)(F)F)nc2cc(C(F)(F)F)ccc12`: the melting point was in the range of 184 to 185 °C.

Compound `CC(C)(C)C(O)(CNc1ccc(Cl)c(Cl)c1)Cn1cncn1` (centres undefined) returned a melting point of 132 to 133 °C.

In turn, `O=C1CCc2cc(NCC(=O)N3CCC(Cc4ccc(F)cc4)CC3)ccc2N1` registered a melting point of 197 to 200 °C.

`CC(C)(CN1CCC(CNC(=O)N2C(=O)C3(CCCC3)c3ccccc32)CC1)C(=O)O`: the melting point was determined as 189 °C.

On to `O=S(=O)(CCCCCl)c1ccccc1`, for which the melting point was 55 to 58 °C.

On to `O=[N+]([O-])c1ccc(Oc2ccc(O)c(Cl)c2Cl)cc1`, for which the melting point was 147 to 150 °C.

`CC(N)c1nnc(Cc2cccc3ccccc23)[nH]c1=O` (centres undefined) displayed a melting point of 180 °C.

Turning to `Cc1c(NC(=O)C(CSC(=O)N(C)C)Cc2ccccc2)cccc1C(=O)O` (centres undefined), the melting point was 84 to 87 °C.

`CCCc1nc2c(C(F)(F)F)cccc2c(O)c1C(=O)O` yielded a melting point of 148 °C.

On to `COc1ccc(C2(Cl)CC(CNC(C)(C)C)=Nc3sc4c(c32)CCNC4)cc1OC` (centres undefined), for which the melting point was 162 to 163 °C.

Turning to `CCN(CC)CCN=C=S`, the melting point fell in the range of 83 to 83.5 °C.

`CC1(C)OC(c2ccc(S(N)(=O)=O)cc2)=C(c2ccc(F)cc2)C1=O` registered a melting point of 162 to 163 °C.

`CC(C)Oc1ccc(-c2cncc(OC3SCC(O)C(O)C3O)c2)cc1` (centres undefined) showed a melting point of 158 °C.

`COc1ccc2cc([C@H](C)C(=O)NOCC(=O)N3CCC(CO[N+](=O)[O-])CC3)ccc2c1`: the melting point lay within 45 to 47 °C.

`CCCCCS(=O)(=O)NC(=O)/C=C/c1ccc(OCCOC)cc1Oc1ccc(C(F)(F)F)cc1Cl` had a melting point of 134 to 135 °C.

Compound `N#CCOC(=O)c1ccc(C(c2ccccc2)c2ccccc2)cn1` showed a melting point of 95 to 98 °C.

In turn, `CC1CCCCC1C(=O)Nc1ccc(-c2ncc(-c3ccc(NC(=O)C4CCCCCC4)cc3)[nH]2)cc1` (centres undefined) displayed a melting point of 258 to 260 °C.

`Cc1c2cc(C(=O)O)[nH]c2cc2c1sc1ccccc12` gave a melting point of 271 to 272 °C.

The compound `O=C(O)C(Cl)(Cl)CCCCCCCCCCC#Cc1ccccc1` displayed a melting point of 155 to 157 °C.

Compound `CN(C)c1ccc(/C=C/c2ccc(F)cc2)cc1` yielded a melting point of 197 to 198 °C.

The compound `COCCOc1ccc(C=O)c(OCc2ccccc2)c1` gave a melting point of 67.5 to 68 °C.

For `COc1ccc(C(=O)C2=C(c3ccccc3)c3ccc(OC)cc3S2=O)cc1` (centres undefined), the melting point lay in the range of 191 to 192 °C.

As for `CC1SC(=O)NN=C1c1ccc2c(c1)CCCN2C(=O)c1ccc2c(c1)OCO2` (single isomer, unassigned; (-)), the melting point worked out at 180 °C.

Turning to `CCC1(O)c2cc3n(c(=O)c2COC1O)Cc1cc2ccccc2nc1-3` (centres undefined), the melting point came to 280 °C.

`CCCCCNC(=O)N(C)c1cccc(-c2ccc(C=C(OC)C(=O)O)cc2OCCOCC)c1` had a melting point of 78.2 °C.

For `O=c1oc2c3c(n(-c4ccccc4)c(=O)c2c(O)c1Sc1ccccc1)-c1ccccc1C3`, the melting point lay within 274 to 275 °C.

The compound `CC(C)C1Sc2ccccc2NC(=O)C1N` (centres undefined) displayed a melting point of 180 to 183 °C.

In the case of `CC(CC1=C(c2ccc(O)cc2)CCCNC1=O)N1CCCCC1` (centres undefined), the melting point was 178 to 181 °C.

`CNC(=O)CC1CSC2=C(C(=O)OC(C)C)CCN21` (centres undefined) showed a melting point of 79 to 95 °C.

`Cc1cc(C)c(C=NNC(=O)c2ccc(O)cc2)[nH]1` showed a melting point of 261 °C.

For `O=C1NC(=O)C(c2c3n(c4ccccc24)CCC(CO)C3)=C1c1coc2ccccc12` (centres undefined), the melting point was in the range of 246 to 248 °C.

As to `CN1CCC(c2cccc3ccc(O)cc23)CC1`, the melting point was 144 to 146 °C.

For the compound `CCc1nc2c(N)nc3ccccc3c2n1CCCCNS(C)(=O)=O`, the melting point was in the range of 198 to 200 °C.

With `O=C1CCCc2sc(CCN3CCC(c4csc5cc(F)ccc45)CC3)cc2N1`, the melting point was 191 to 193 °C.

`N=c1cc(NC(=S)NCc2ccccc2)nc2n1CCCS2` displayed a melting point of 189 to 190 °C.

The compound `Cc1ccc(-c2nc3ccc(C(C)(C)CN)cc3[nH]2)cc1` had a melting point of 45 to 48 °C.

Regarding `O=C(N[C@H]1CCN(CCc2ccc(F)cc2)C1)C1=c2ccccc2=CC=C2CC=CC=C21`, the melting point was 127 to 128 °C.

`CCOc1ccc(CCN(C(=O)O)C(=O)[C@H](CCSC)NC(C)=O)cc1OCC` gave a melting point of 85 to 90 °C.

`O=c1[nH]c2ncc(-c3ccc4[nH]cnc4c3)nc2n1CCC1CCOCC1` showed a melting point of 264 to 265 °C.

Consider `CC1=C(C(=O)N(c2ccccc2)C2CCCCCC(F)C2)CCO1` (centres undefined), for which the melting point came out at 91 °C.

Compound `CC(C)CC(=O)OCC(COC(=O)CC(C)C)OCn1cnc2c(=O)[nH]c(N)nc21` yielded a melting point of 215 to 217 °C.

`Cc1ccc(C(F)C(F)(F)S(=O)(=O)c2ccccc2)cc1` (centres undefined): the melting point lay in the range of 80 to 82 °C.

`COn1cc(C(=O)O)c(=O)c2cc3cc(F)c(F)cc3nc21` showed a melting point of 325 to 327 °C.

For `COc1ccccc1C(=O)c1cc2ccccc2[nH]1`, the melting point is 129 to 130 °C.

The compound `Nc1nc(SCc2ccccc2)c2ncn(C3CC(F)C(CO)O3)c2n1` (centres undefined) showed a melting point of 150 to 151 °C.

`O=C(C=Cc1ccncc1)c1ccco1` returned a melting point of 122 to 124 °C.

Take `CC(C)(C)Oc1ccc2c(c1)Oc1ccccc1S2(=O)=O`: the melting point was 108 to 110 °C.

Take `O=C(O)c1cc(Cl)c(F)c(Cl)c1F`: the melting point came to 179 °C.
